ChEMBL document CHEMBL1177693, “Antimalarials from nature” (Bioorg Med Chem, 2009)
Converted amounts (≈) assume the structure as drawn. Values belong to the molecule of their own block, whether it stands above or below them.

Assays:
Plasmodium falciparum [1] = assay: Antimalarial activity against chloroquine-sensitive Plasmodium falciparum; type: functional, organism-based
Plasmodium falciparum [2] = assay: Antimalarial activity against chloroquine-resistant Plasmodium falciparum; type: functional, organism-based
Plasmodium falciparum [3] = assay: Antimalarial activity against Plasmodium falciparum after 48 hrs; type: functional, organism-based
Plasmodium falciparum [4] = assay: Antimalarial activity against Plasmodium falciparum after 32 hrs; type: functional, organism-based
Plasmodium falciparum [5] = assay: Antimalarial activity against Plasmodium falciparum after 72 hrs; type: functional, organism-based
Plasmodium falciparum [6] = assay: Antimalarial activity against Plasmodium falciparum FCA; type: functional, organism-based
Plasmodium falciparum [7] = assay: Antimalarial activity against Plasmodium falciparum infected in perorally dosed mice (Mus musculus) administered for 4 days; type: functional; settings: po, 96 h
Plasmodium falciparum [8] = assay: Antimalarial activity against Plasmodium falciparum infected in intravenously dosed mice (Mus musculus) administered for 4 days; type: functional; settings: iv, 96 h
Plasmodium falciparum [9] = assay: Antimalarial activity against chloroquine-sensitive Plasmodium falciparum D10; type: functional, organism-based
Plasmodium falciparum [10] = assay: Antimalarial activity against multidrug-resistant Plasmodium falciparum K1 infected in erythrocytes; type: functional, organism-based
Plasmodium falciparum [11] = assay: Antimalarial activity against drug-susceptible Plasmodium falciparum NF54 infected in erythrocytes; type: functional, organism-based
[12] = target: T1, Enoyl-acyl-carrier protein reductase (Plasmodium falciparum, UniProt Q965D5); assay: Inhibition of Plasmodium falciparum Fabl
T1 sequence (Q965D5 whole entry): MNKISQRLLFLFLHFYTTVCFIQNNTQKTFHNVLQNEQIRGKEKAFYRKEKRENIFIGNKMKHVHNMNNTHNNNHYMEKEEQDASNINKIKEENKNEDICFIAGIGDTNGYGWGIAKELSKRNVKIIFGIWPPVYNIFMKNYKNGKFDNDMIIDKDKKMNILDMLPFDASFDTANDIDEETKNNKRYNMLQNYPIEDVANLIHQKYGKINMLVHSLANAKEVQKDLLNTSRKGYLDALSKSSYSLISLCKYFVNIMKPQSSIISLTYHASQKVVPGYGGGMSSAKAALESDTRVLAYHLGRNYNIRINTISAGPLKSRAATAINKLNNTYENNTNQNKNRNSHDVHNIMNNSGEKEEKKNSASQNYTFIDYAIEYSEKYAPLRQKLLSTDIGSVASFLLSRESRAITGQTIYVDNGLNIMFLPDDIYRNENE

[13] = Inhibition of Plasmodium falciparum FabG
Plasmodium falciparum [14] = assay: Antimalarial activity against Plasmodium falciparum infected in erythrocytes; type: functional, organism-based
[15] = Cytotoxicity against erythrocytes assessed as morphological changes; type: cell-based; settings: Erythrocyte
Plasmodium falciparum [16] = assay: Antimalarial activity against Plasmodium falciparum 3D7; type: functional, organism-based
Plasmodium falciparum [17] = assay: Antimalarial activity against Plasmodium falciparum W2; type: functional, organism-based
Plasmodium falciparum [18] = assay: Antimalarial activity against Plasmodium falciparum FCA 20; type: functional, organism-based
Plasmodium falciparum [19] = assay: Antimalarial activity against Plasmodium falciparum FCB1-R; type: functional, organism-based
Plasmodium falciparum [20] = assay: Antimalarial activity against chloroquine-susceptible Plasmodium falciparum D6; type: functional, organism-based
Plasmodium falciparum [21] = assay: Antimalarial activity against chloroquine-resistant Plasmodium falciparum W2; type: functional, organism-based
Plasmodium falciparum [22] = assay: Antimalarial activity against chloroquine-sensitive Plasmodium falciparum 3D7; type: functional, organism-based
Plasmodium falciparum [23] = assay: Antimalarial activity against Plasmodium falciparum D6; type: functional, organism-based
Plasmodium falciparum [24] = assay: Antimalarial activity against Plasmodium falciparum FCR3F86; type: functional, organism-based

Compound: Cc1c2c(cc3c1C(=O)C=C(C(C)C)C3=O)C(C)(C)CCC2 [12,16-DIDEOXY AEGYPTINONE B]
- IC50 (Plasmodium falciparum [1]): 1.3 µg/mL (≈ 4.39 µM)
- IC50 (Plasmodium falciparum [2]): 1.4 µg/mL (≈ 4.72 µM)

Compound: C[C@H]1[C@@H](CC(COC(=O)c2cc[n+]([O-])cc2)C[C@H]2O[C@@H]3O[C@]4(C)CC[C@H]5[C@H](C)CC[C@@H]([C@H]2C)[C@@]35OO4)O[C@@H]2O[C@]3(C)CC[C@H]4[C@H](C)CC[C@@H]1[C@@]24OO3 (stereo not given in full)
- ED50 (Plasmodium falciparum [7]): 2 mg/kg
- ED50 (Plasmodium falciparum [8]): 0.8 mg/kg

Compound: COc1cc(/C=C2/Cc3c(OC(C)=O)cc(OC(C)=O)cc3O2)cc(OC)c1OC(C)=O
- IC50 (Plasmodium falciparum [10]): 7 nM
- IC50 (Plasmodium falciparum [11]): 180 nM

Compound: CCCCCCCc1cc(/C=C2\N=C(c3ccc[nH]3)C=C2OC)[nH]c1C [HEPTYL PRODIGIOSIN]
- IC50 (Plasmodium falciparum [16]): 70 nM

Compound: CO[C@H]1C[C@@H]([C@@H](O)[C@@](C)(OC)[C@H](C)OC)O[C@]2(O[C@](C)([C@H]3CC[C@@H]([C@H]4CC[C@H]([C@H]5O[C@](C)(O)[C@H](C)[C@@H](O)[C@@H]5C)O4)O3)[C@H](OC)[C@H]2C)[C@H]1C
- IC50 (Plasmodium falciparum [20]): 0.1 µg/mL (≈ 0.145 µM)
- IC50 (Plasmodium falciparum [21]): 0.1 µg/mL (≈ 0.145 µM)

Compound: Cc1cc(=O)c(O)cc2c1C[C@H]1CC(C)(C)/C=C/C[C@@]3(C)Oc4cc(O)c(=O)cc(C)c4C[C@@H]3C[C@H](O)[C@]1(C)O2 [PYCNIDIONE]
- IC50 (Plasmodium falciparum [23]): 750 nM
- IC50 (Plasmodium falciparum [24]): 280 nM
- IC50 (Plasmodium falciparum [17]): 370 nM

Second part, led by results:

- IC50 (Plasmodium falciparum [3]): 26 µg/mL (≈ 56.7 µM)
- IC50 (Plasmodium falciparum [4]): 14 µg/mL (≈ 30.5 µM)
- IC50 (Plasmodium falciparum [5]): 1.8 µg/mL (≈ 3.92 µM)
Compound: CC(C)=CCC/C(C)=C/CC/C(C)=C/CC[C@@]1(C)[C@H](CCCO)/C(=C(/C)C=O)CC[C@]1(C)O [IRIDAL]

- IC50 (Plasmodium falciparum [6]): 0.33 µg/mL (≈ 0.947 µM)
Compound: C=C1C(=O)O[C@@H]2/C=C(/C)C(=O)/C=C/[C@](C)(O)C[C@@H](OC(=O)C(C)C)[C@@H]12 [TAGITININ C]

- IC50 (Plasmodium falciparum [9]): 12300 nM
Compound: COc1cc(O)cc2c1c(=O)c1ccccc1n2C [TEGERRARDIN A]

- IC50 [12]: 65300 nM
- IC50 [13]: 20 µg/mL (≈ 65.3 µM)
Compound: C=C1C(=O)OC[C@H]1[C@@H](/C=C(\C)CC(=O)C=C(C)C)OC(C)=O

- IC50 (Plasmodium falciparum [14]): 25600 nM
Compound: CC(C)c1ccc2c(c1)CC[C@H]1[C@](C)(CO)CCC[C@]21C [POMIFERIN A]
- IC50 [15]: 28000 nM

- IC50 (Plasmodium falciparum [17]): 500 nM
- IC50 (Plasmodium falciparum [18]): 500 nM
- IC50 (Plasmodium falciparum [19]): 500 nM
Compound: C=Cc1c[n+]2c(c(O)c1C[C@H]1c3[nH]c4ccccc4c3CCN1C)-c1[nH]c3c([C@H]4CCCN4C)c(O)ccc3c1CC2 [CHRYSOPENTAMINE]

- IC50 (Plasmodium falciparum [22]): > 100000 nM
Compound: COc1cc(O)c2c(c1)O[C@H](c1ccccc1)CC2=O [PINOSTROBIN]
